Test results reported in publication PMC8851771, “Molecular action of larvicidal flavonoids on ecdysteroidogenic glutathione S-transferase Noppera-bo in Aedes aegypti” (BMC Biology, 2022).
Read-outs that look alike come from different tables or passages of the source.

Legend:
[1] = biological target: AeNobo-WT (Aedes aegypti, UniProt A0A1S4FIB3); assay: GST activity inhibition assay with 3,4-DNADCF, wild-type AeNobo; format: biochemical
Description: We prepared a purified AeNobo recombinant protein (220-aa length) using an Escherichia coli protein expression system. The GST enzymatic activity was examined using the fluorogenic artificial substrate 3,4-dinitrobenzamidedichlorofluorescein (3,4-DNADCF).
The IC50 value was measured using an in vitro assay system as described previously. […] Five microliters of each diluted compound solution was mixed with 245 μL of solution A (100 mM sodium phosphate buffer at pH 6.5, 0.01% Tween 20, 2 mM GSH, and 50 ng/mL AeNobo-WT, 100 ng/mL AeNobo-E113A, and 200 ng/mL F39L). One hundred microliters of the mixture was dispensed into wells of a 96-well plate. One hundred microliters of solution B (0.2 μM 3,4-DNADCF and 100 mM sodium phosphate buffer at pH 6.5) was added to each well. In summary, the final reaction system comprised 100 mM sodium phosphate buffer (pH 6.5), 1 mM GSH, 0.005% Tween 20, 0.1 μM 3,4-DNACDF, and 25 ng/mL AeNobo, 50 ng/mL AeNobo-E113A, or 100 ng/mL AeNobo-F39L protein. The fluorescence intensity derived from 4-GS-3-NADCF, a product of this reaction, was measured for 3 min. IC50 values were estimated as described previously. The enzymatic assays under each condition were performed at least twice independently.
To identify inhibitors of AeNobo enzymatic activity, a high-throughput screening was performed as described in a previous study. Briefly, a core library of 9600 compounds obtained from the Drug Discovery Initiative, The University of Tokyo, was utilized for screening. In this screen, the enzymatic activity of AeNobo was detected using 3,4-DNADCF [29]. […] Then, 1 μL of solution B (4 μM 3,4-DNADCF, 100 mM sodium phosphate at pH 6.5, and 0.005% Tween 20) was added into each well. In summary, the reaction system comprised 5.6 ng/mL AeNobo protein, 2 μM 3,4-DNADCF, 1 mM GSH, 0.005% Tween 20, and 100 mM sodium phosphate at pH 6.5, together with each compound at 10 μM. The plate was incubated for 30 min at 25–27 °C and 2 μL of 10 mM N-ethylmaleimide was added into each well to stop the reaction. […] For the second screen, we assayed the IC50 values of the compounds against the enzymatic activity of AeNobo.

[2] = biological target: AeNobo-E113A (Aedes aegypti, UniProt A0A1S4FIB3, E164K); assay: GST activity inhibition assay with 3,4-DNADCF, AeNobo-E113A; format: biochemical
Chain of AeNobo-E113A (A0A1S4FIB3 entry or part of it E164K): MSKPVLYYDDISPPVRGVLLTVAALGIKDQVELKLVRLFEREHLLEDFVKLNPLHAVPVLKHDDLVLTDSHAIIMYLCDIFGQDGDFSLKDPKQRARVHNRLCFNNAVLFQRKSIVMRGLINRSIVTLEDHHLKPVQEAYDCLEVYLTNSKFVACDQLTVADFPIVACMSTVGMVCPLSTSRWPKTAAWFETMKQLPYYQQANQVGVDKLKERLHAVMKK
Source text: The importance of the Glu-113–flavonoid hydrogen bond for flavonoid binding was biochemically examined with a recombinant mutated AeNobo protein carrying an E113A aa substitution (AeNobo-E113A).
(§1) pCold III plasmids expressing the AeNobo-E113A and AeNobo-F39L were constructed using KOD-Plus-Mutagenesis Kit (Toyobo). The following primers were used: E113A-F (5′-[…]-3′) and E113A-R (5′-[…]-3′) for AeNobo-E113A and F39L-F (5′-[…]-3′) and F39L-R (5′-[…]-3′) for AeNobo-F39L. We conducted inverse PCR using KOD-plus polymerase, pColdIII/AeNobo-WT plasmid, and the primer pair described above under the following conditions: pre-denaturation at 94 °C for 2 min, denaturation at 98 °C for 10 s, and extension at 68 °C for 6 min for 6 cycles. The PCR products were treated with DpnI at 37 °C for 1 h, followed by self-ligation using T4 polynucleotide kinase and Ligation High. After the transformation of DH5α bacteria using the ligation products, we extracted plasmid DNA from the colonies and verified their sequences to confirm whether the appropriate point mutations were introduced.
The IC50 value was measured using an in vitro assay system as described previously. A dilution series of compounds, ranging from 2.5 mM to 0.127 μM for DMG and from 2.5 mM to 4.9 μM for other compounds, was prepared by 2-fold serial dilution in DMSO. Five microliters of each diluted compound solution was mixed with 245 μL of solution A (100 mM sodium phosphate buffer at pH 6.5, 0.01% Tween 20, 2 mM GSH, and 50 ng/mL AeNobo-WT, 100 ng/mL AeNobo-E113A, and 200 ng/mL F39L). One hundred microliters of the mixture was dispensed into wells of a 96-well plate. One hundred microliters of solution B (0.2 μM 3,4-DNADCF and 100 mM sodium phosphate buffer at pH 6.5) was added to each well. In summary, the final reaction system comprised 100 mM sodium phosphate buffer (pH 6.5), 1 mM GSH, 0.005% Tween 20, 0.1 μM 3,4-DNACDF, and 25 ng/mL AeNobo, 50 ng/mL AeNobo-E113A, or 100 ng/mL AeNobo-F39L protein. The fluorescence intensity derived from 4-GS-3-NADCF, a product of this reaction, was measured for 3 min. IC50 values were estimated as described previously. The enzymatic assays under each condition were performed at least twice independently.

[3] = system: Ae. aegypti 1st instar larvae; conditions: cited from earlier work
[4] = biological target: AeNobo-F39L (Aedes aegypti, UniProt A0A1S4FIB3, F90L); assay: GST activity inhibition assay with 3,4-DNADCF, AeNobo-F39L; format: biochemical
Chain of AeNobo-F39L (A0A1S4FIB3 entry or part of it F90L): as the sequence (A0A1S4FIB3 entry or part of it E164K) above, with F39L, K113E counted along it
Description: as §1
The IC50 value was measured using an in vitro assay system as described previously. A dilution series of compounds, ranging from 2.5 mM to 0.127 μM for DMG and from 2.5 mM to 4.9 μM for other compounds, was prepared by 2-fold serial dilution in DMSO. […] The fluorescence intensity derived from 4-GS-3-NADCF, a product of this reaction, was measured for 3 min. […]

[5] = biological target: Aedes aegypti Noppera-bo (AeNobo), wild type, 220-aa protein (Aedes aegypti); assay: SEC; gel filtration of purified AeNobo on HiLoad Superdex200 26/60; 150 mM NaCl, 25 mM Tris-HCl pH 8.0, 5 mM DTT; 1 mL/min; compared with marker proteins
[6] = Table S2, estrogenic compounds against AeNobo, read-out: IC50 (μM) (mean ± s.d.)
[7] = Table 1, GSH conjugation of 3,4-DNADCF, read-out: IC50 to AeNobo-WT (μM) (mean ± s.d.)
[8] = read-out: IC50 (μM) (mean ± s.d.)
[9] = Table S5, luteolin derivatives against AeNobo, read-out: IC50 (μM) (mean ± s.d.)

Chain of AeNobo-WT (A0A1S4FIB3 entry or part of it): as the sequence (A0A1S4FIB3 entry or part of it E164K) above, with K113E counted along it

ClC(Cl)=C(c1ccc(Cl)cc1)c1ccc(Cl)cc1 [1,1-Dichloro-2,2-bis(4-chlorophenyl)ethene]
IC50 [1]: > 25 µM

CCCCOC(=O)c1ccccc1C(=O)OCc1ccccc1 [1-benzyl 2-butyl benzene-1,2-dicarboxylate]
IC50 [1, 6]: > 25 µM

Cn1c(N)nc2ncc(-c3ccccc3)cc21 [2-Amino-1-methyl-6-phenylimidazo[4,5-b]pyridine]
IC50 [1]: > 25 µM

O=C1CC(c2ccccc2O)Oc2ccccc21 (stereo not shown) [2′-Hydroxyflavanone]
IC50 [1, 7]: 4.76 ± 0.37 µM
IC50 [2]: > 25 µM

O=c1c(-c2ccc(O)cc2)coc2ccccc12 [3-(4-Hydroxyphenyl)-4H-chromen-4-one]
Inhibition of enzymatic activity of AeNobo (in words) ([1]; 3,4-DNADCF): did not inhibit
IC50 [1, 8]: > 25 µM

CC(C)(C)CC(C)(C)c1ccc(O)cc1 [4-(2,4,4-trimethylpentan-2-yl)phenol]
IC50 [1, 6]: > 25 µM

Oc1ccc(C(c2ccc(O)cc2)C(Cl)(Cl)Cl)cc1 [4-[2,2,2-trichloro-1-(4-hydroxyphenyl)ethyl]phenol]
IC50 [1]: > 25 µM

CC1=CC[C@@H]2C[C@H]1C(c1ccc(O)cc1)OC2(C)C (stereo partly drawn) [4-[(1R,5R)-4,4,8-trimethyl-3-oxabicyclo[3.3.1]non-7-en-2-yl]phenol]
IC50 [1, 6]: > 25 µM

CC1=CC(C)[C@@]2(CO)COC(c3ccc(O)cc3)[C@@H]1C2C (stereo partly drawn) [4-[(1R,5R)-5-(hydroxymethyl)-6,8,9-trimethyl-3-oxabicyclo[3.3.1]non-7-en-2-yl]phenol]
IC50 [1, 6]: > 25 µM

O=c1cc(-c2ccc(O)c(O)c2)oc2cccc(O)c12 [5,3’,4’-Trihydroxyflavone, 5,3′,4′-trihydroxyflavone]
IC50 [1]: 1.64 ± 0.1 µM
Inhibition of enzymatic activity of AeNobo (in words) ([1]; 3,4-DNADCF): retained inhibitory activity

O=c1cc(-c2ccc(O)c(O)c2)oc2cc(O)ccc12 [7,3’,4’-Trihydroxyflavone, 7,3′,4′-trihydroxyflavone]
Inhibition of enzymatic activity of AeNobo (in words) ([1]; 3,4-DNADCF): retained inhibitory activity
IC50 [1, 8]: 10.3 ± 0.47 µM

O=c1c(-c2ccccc2)coc2cc(O)ccc12 [7-Hydroxyisoflavone]
IC50 [1]: 5.61 ± 0.3 µM
Inhibition of enzymatic activity of AeNobo (in words) ([1]; 3,4-DNADCF): retained inhibitory activity

C[C@]12CC[C@@H]3c4ccc(O)cc4CC[C@H]3[C@@H]1C/C(=C\c1ccccc1)C2=O [16-benzylidene estrone]
IC50 [1, 6]: > 25 µM

Cc1cc(-c2ccc3c(c2)CC[C@]3(C)O)cc(C)c1O [(S)-5-(4-hydroxy-3,5-dimethylphenyl)-1-methyl-2,3-dihydro-1H-inden-1-ol]
IC50 [1, 6]: > 25 µM

O=c1cc(-c2ccc(O)cc2)oc2cc(O)cc(O)c12 [Apigenin]
IC50 [1, 9]: > 25 µM
IC50 ([1]; text and figures, 3,4-DNADCF, read-out: IC50 against AeNobo (WT)): > 25 µM

COc1ccc(-c2coc3cc(O)cc(O)c3c2=O)cc1 [Biochanin A]
IC50 [1, 7]: 1.84 ± 0.06 µM
IC50 ([2]; Table 1, GSH conjugation of 3,4-DNADCF, read-out: IC50 to AeNobo-E113A (μM) (mean ± s.d.)): > 25 µM

CC(C)(c1ccc(O)cc1)c1ccc(O)cc1 [Biosphenol A, 4,4'-propane-2,2-diyldiphenol]
IC50 [1]: > 25 µM

O=c1cc(-c2ccccc2)oc2cc(O)cc(O)c12 [Chrysin]
Inhibition of enzymatic activity of AeNobo (in words) ([1]; 3,4-DNADCF): did not exhibit any inhibitory activity
IC50 [1, 9]: > 25 µM

Oc1cc(O)c2cc(O)c(-c3ccc(O)c(O)c3)[o+]c2c1 [Cyanidin chloride]
IC50 [1, 7]: 2.15 ± 0.24 µM
IC50 [2]: > 25 µM

O=c1c(-c2ccc(O)cc2)coc2cc(O)ccc12 [Daidzein]
IC50 [1]: 3.87 ± 0.52 µM
IC50 [2]: > 25 µM
Larvicidal activity against Ae. aegypti [3]: exhibit larvicidal activity
Larvicidal activity toward Ae. aegypti [3]: known to exhibit larvicidal activity

O=c1c(O)c(-c2ccc(O)c(O)c2)oc2cc(O)ccc12 [Fisetin]
IC50 [1, 7]: 1.69 ± 0.04 µM
IC50 [2]: > 25 µM

O=c1c(-c2ccc(O)cc2)coc2cc(O)cc(O)c12 [Genistein]
IC50 [1, 8]: 1.86 ± 0.41 µM
Larvicidal activity against Ae. aegypti [3]: exhibit larvicidal activity

O=c1c(O)c(-c2ccc(O)cc2)oc2cc(O)cc(O)c12 [Kaempferol]
IC50 [1, 7]: 4.91 ± 1.69 µM
IC50 [2]: > 25 µM

O=c1cc(-c2ccc(O)c(O)c2)oc2cc(O)cc(O)c12 [Luteolin]
IC50 [2]: 35.8 ± 5.73 µM
IC50 [4]: 1.58 µM
Larvicidal activity toward Ae. aegypti [3]: known to exhibit larvicidal activity

O=c1c(O)c(-c2cc(O)c(O)c(O)c2)oc2cc(O)cc(O)c12 [Myricetin]
IC50 [1]: 2.91 ± 0.27 µM
IC50 [2]: > 25 µM

O=C1C[C@@H](c2ccc(O)cc2)Oc2cc(O)cc(O)c21 [Naringenin]
IC50 [1, 7]: > 25 µM

COc1cc(-c2[o+]c3cc(O)cc(O)c3cc2O)cc(O)c1O [Petunidin]
IC50 [1, 7]: 14.9 ± 2.01 µM
IC50 [2]: > 25 µM

O=c1c(O)c(-c2ccc(O)c(O)c2)oc2cc(O)cc(O)c12 [Quercetin]
IC50 [1]: 0.963 ± 0.094 µM
IC50 [2]: > 25 µM

Oc1ccc(/C=C/c2cc(O)cc(O)c2)cc1 [Resveratrol]
IC50 [1, 6]: > 25 µM

Oc1ccc([C@H]2COc3cc(O)ccc3C2)cc1 [S-equol]
IC50 [1, 7]: > 25 µM

COc1ccc(-c2oc3cc(O)cc(O)c3c(=O)c2O)cc1O [Tamarixetin]
IC50 [1, 7]: > 25 µM

C[C@H]1CCCC(=O)CCC/C=C/c2cc(O)cc(O)c2C(=O)O1 [Zearalenone]
IC50 [1]: > 25 µM

O=C(c1ccc(O)cc1O)c1ccc(O)cc1O [bis(2,4-dihydroxyphenyl)methanone]
IC50 [1, 6]: > 25 µM

CCCCOC(=O)c1ccc(O)cc1 [butyl 4-hydroxybenzoate]
IC50 [1, 6]: > 25 µM

CCCOC(=O)c1ccc(O)cc1 [propyl 4-hydroxybenzoate]
IC50 [1, 6]: > 25 µM

C[C@H]1CCC[C@H](O)CCCCCc2cc(O)cc(O)c2C(=O)O1 [α-zearalanol]
IC50 [1, 6]: > 25 µM

(+)-catechin hydrate [(+) Catechin hydrate]
IC50 [1, 7]: > 25 µM

Aedes aegypti Noppera-bo (AeNobo), wild type, 220-aa protein (enzyme)
stoichiometry N [5]: 2
